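Where inhibition never reached the appropriate level, the endpoint shown equals the highest concentration tested. Otherwise, values were interpolated linearly from a five-concentration, 48-hour dose response in 96-well plates. Definition used: TGI = concentration required for complete inhibition of growth.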 Where only a bound is given, the exact number is not on record here.

Assay in all cases: growth of human tumour cells (NCI), 48 h
Test [1] concerns SF-539 CNS.
Test [2] concerns NCI/ADR-RES ovarian.
For test [3], the system named is KM12 colon.
For test [4], the system named is NCI-H226 lung.
Test [5] relates to UACC-257 melanoma.
Test [6] has as its system LOX IMVI melanoma.
Test [7] concerns PC-3 prostate.
The subject of test [8] is HOP-92 NSCLC.
Test [9] relates to M14 melanoma.
The test system of test [10] is SK-MEL-28 melanoma.
Test [11] relates to HOP-62 NSCLC.
Test [12] relates to UACC-62 melanoma.
In test [13] the test system is SF-268 CNS.
Test [14] concerns CCRF-CEM leukemia.
Test [15] concerns MALME-3M melanoma.
The test system of test [16] is RXF 393 renal.

For the compound `CC1(C)CC(=O)C(/C=N/c2nc(-c3ccccc3)cs2)=C(O)C1`, the TGI is 64.7 µM in [1]; over 100 µM in test [2]; over 100 µM in test [3]; over 100 µM in test [4]; over 100 µM in test [5]; over 100 µM in [6]. For the same compound, the TGI in [7], in [8], in [9], in [10] and in [11] was over 100 µM throughout.

`Cc1nn(C(=O)Cc2ccccc2)c2c1C(c1ccc(N(C)C)cc1)SC(N)=N2` (stereo not given): the TGI in test [1], in test [12], in test [13], in test [3], in test [4] and in test [14] was over 100 µM throughout. Besides, the TGI in [5], in [6], in test [7], in [9], in [15] and in test [10] was over 100 µM each time. The TGI in test [11] is over 100 µM.

Regarding `COC(=O)C(=Cc1cc(OC)c(OC)c(OC)c1-c1cc2c(cc1C(C)=O)OCO2)C(=O)OC`, the TGI is 88.2 µM in test [1]; 73.8 µM in test [12]; 133 µM in test [13]; 70.4 µM in test [3]; 100 µM in [4]; over 211 µM in [14]. Also, the TGI in [5] was determined as 188 µM; in test [6], 79.4 µM; in test [8] it was 124 µM; in [16], 63.7 µM; in test [15] it was 78.3 µM; in test [10] it was 78.1 µM. In test [11], this compound yielded a TGI of 67.1 µM.

With `c1csc(-c2cc(-c3cccs3)c(-c3ccsc3)s2)c1`, the TGI in test [1], in test [12], in test [2], in [13], in test [3] and in test [4] was over 100 µM in each case. The TGI in test [14], in [5], in test [6], in test [7], in test [9] and in test [15] was over 100 µM each time. For the same compound, the TGI in test [10] and in test [11] was over 100 µM in each case.

Regarding `O=C(Nc1ccc(Cl)cc1Cl)C(=O)C(C(=O)c1ccncc1)C1OC(=O)c2ccccc21` (stereo not given), the TGI in [1], in test [12], in [13], in test [3], in test [4] and in test [14] was over 100 µM throughout. Also, the TGI in test [5], in [6], in test [8], in test [9], in test [16] and in [15] was over 100 µM in each case. The TGI in test [10] and in test [11] was over 100 µM throughout.

Consider `C=C1CCC23CC(CC[C@@H]2[C@@]12C[C@@H](c1ccoc1)OC2=O)OC3=O` (stereo not given in full), for which the TGI in test [1], in test [12], in test [13], in test [3], in test [4] and in test [14] was over 100 µM throughout. Moreover, the TGI in [5], in [8], in test [9], in [15] and in test [11] was over 100 µM in each case.

In the case of `c1ccc(CSP234N5CCN2CCN3CCN4CC5)c(CSP234N5CCN2CCN3CCN4CC5)c1`, the TGI in test [1], in test [12], in test [2], in test [13], in [3] and in [14] was over 100 µM in each case. Further, the TGI in test [5], in [6], in test [7], in [8], in test [9] and in test [10] was over 100 µM throughout. Besides, the TGI in test [11] is over 100 µM.

Regarding `Cc1ccc(-c2c3nc(c(-c4ccc(C)cc4)c4ccc([nH]4)c(-c4ccc(OCC5COC(C)(C)O5)cc4)c4nc(c(-c5ccc(C)cc5)c5ccc2[nH]5)C=C4)C=C3)cc1` (stereo not given), the TGI in [1], in test [2], in test [13], in [3], in test [4] and in test [5] was over 31.6 µM in each case. Further, the TGI in test [6] was over 31.6 µM; in [8], over 100 µM; in [9], over 31.6 µM; in [15], over 31.6 µM; in [10], over 31.6 µM; in test [11] it was over 31.6 µM.

Consider `COc1cccc(/C=C2\C(=O)N(C(=O)c3ccc(NC(C)=O)cc3)N=C2C)c1`, for which the TGI in test [1], in test [13], in test [4], in test [14], in test [5] and in test [6] was over 100 µM each time. Moreover, the TGI in [9], in test [15], in test [10] and in [11] was over 100 µM throughout.

On to `N#Cc1c(-c2ccccc2)cc(Nc2cccc(C(F)(F)F)c2)n2c1nc1ccccc12`, for which the TGI in test [1] worked out at 5.06 µM; in test [2], 7.15 µM; in test [13], 11.5 µM; in [3], 30.5 µM; in [4] it was 4.74 µM; in test [5], 9.76 µM. Moreover, the TGI worked out at 3.95 µM in [6]; 0.769 µM in test [8]; 11.9 µM in test [16]; 8.32 µM in [15]; 21.8 µM in [10]; 9.81 µM in test [11].

For the compound `CCO/N=C(/N)c1ncn(Cc2ccccc2)c1NCC(OCC)OCC`, the TGI in test [1], in test [12], in test [13], in test [3], in test [4] and in test [14] was over 100 µM each time. The TGI is over 100 µM in test [5]; over 100 µM in test [6]; over 100 µM in test [9]; 99.5 µM in [16]; over 100 µM in [15]; over 100 µM in test [11].

Source of the values: PubChem BioAssay (NCI).
